One assay addresses T1, BTK (Homo sapiens, UniProt Q06187).
T1 construct: High control=Cell group with added DMSO and without compound, indicating microplate readings without BTK degradation; endogenous in cells; host or cells: TMD-8 cells
Briefly: Cell Degradation: BTK degradation in TMD-8 cells, HTRF assay. It counts as cell-based. The settings on record: 6 h treatment, IC50 (DC50) of BTK degradation. As to the method:
TMD-8 cells are treated with compounds in 0.2% DMSO, dilution is done according to the following protocol: (1) make 500× stock solution in DMSO from 1 mM by 6-fold dilution, total 8 doses were included; (2) make 2× solution in cell culture medium by transferring 0.5 μl 500× stock solution into 125 μl medium; (3) 15 μl of 2× solution is added to cells and incubate for 6 h.
After 6 h treatment, add […] 4×lysis buffer to each well; seal the plate and incubate 30 min at room temperature on a plate shaker; Once the cells are lysed, 16 μL of cell lysate are transferred to a PE 384-well HTRF detection plate; 4 μL of pre-mixed HTRF antibodies are added to each well; Cover the plate with a plate sealer, spin 1000 rpm for 1 min, Incubate overnight at room temperature; Read on BMG PheraStar with HTRF protocol (337 nm-665 nm-620 nm).
The inhibition (degradation) percentage of the compound was calculated by the following equation: Inhibition percentage of Compound=100-100× (Signal-low control)/(High control-low control), wherein signal=each test compound group
Dmax is the maximum percentage of inhibition (degradation).
The IC50 (DC50) value of a compound can be obtained by fitting the following equation
Y=Bottom+(TOP-Bottom)/(1+((IC50/X)^hillslope))
(§1) Wherein, X and Y are known values, and IC50, Hillslope, Top and Bottom are the parameters obtained by fitting with software. Y is the inhibition percentage (calculated from the equation), X is the concentration of the compound; IC50 is the concentration of the compound when the 50% inhibition is reached. The smaller the IC50 value is, the stronger the inhibitory ability of the compound is. Vice versa, the higher the IC50 value is, the weaker the ability the inhibitory ability of the compound is; Hillslope represents the slope of the fitted curve, generally around 1 *; Bottom represents the minimum value of the curve obtained by data fitting, which is generally 0%±20%; Top represents the maximum value of the curve obtained by data fitting, which is generally 100%±20%. The experimental data were fitted by calculating and analyzing with Dotmatics data analysis software.
In general terms: Time-resolved FRET reads energy transfer from a long-lived donor to a nearby acceptor.

For the next assay, the system named is HEK-293 cells. Nature of the assay: HEK-293 Cytotoxicity Assay (CellTiter-Glo). In kind it is cell-based. Particulars: Homo sapiens, HEK293, 72 h incubation, CellTiter-Glo luminescence. As to the method: HEK-293 Cytotoxicity Assay
HEK-293 cells are treated with compounds diluted in 0.2% DMSO, dilution is done according to the following protocol: (1) make 500× stock solution in DMSO from 5 mM by 4-fold dilution, total 8 doses were included; (2) make 2× solution in cell culture medium by transferring 0.5 ul 500× stock solution into 125 ul medium; (3) 50 ul of 2× solution is added to cells and incubate for 72 h.
Add 25 μl of the CellTiter-Glo®Reagent [I (Promega)—Cat No. G7572] to each well in the 96-well plate. Mix contents for 2 minutes on an orbital shaker to induce cell lysis. Allow the plate to incubate at room temperature for 10 minutes to stabilize luminescent signal. Record luminescence on BMG PheraStar with luminescence protocol.
as §1, with “The IC50 value of a compound can be obtained by fitting the following equation. Y=Bottom+(TOP−Bottom)/(1+((IC50/X)^hillslope)) Wherein,” for “Wherein,”, “1*;” for “1 *;”
In general terms: ATP-based viability assays read luminescence as a measure of living cells.

By DC50 is commonly meant the midpoint of the concentration-degradation curve. Low values mean degradation at low concentration, high ones degradation only at high concentration. As a reminder, the IC50 is the concentration that gives 50% inhibition. A higher IC50 goes with weaker potency.

T1 sequence (Q06187 whole entry): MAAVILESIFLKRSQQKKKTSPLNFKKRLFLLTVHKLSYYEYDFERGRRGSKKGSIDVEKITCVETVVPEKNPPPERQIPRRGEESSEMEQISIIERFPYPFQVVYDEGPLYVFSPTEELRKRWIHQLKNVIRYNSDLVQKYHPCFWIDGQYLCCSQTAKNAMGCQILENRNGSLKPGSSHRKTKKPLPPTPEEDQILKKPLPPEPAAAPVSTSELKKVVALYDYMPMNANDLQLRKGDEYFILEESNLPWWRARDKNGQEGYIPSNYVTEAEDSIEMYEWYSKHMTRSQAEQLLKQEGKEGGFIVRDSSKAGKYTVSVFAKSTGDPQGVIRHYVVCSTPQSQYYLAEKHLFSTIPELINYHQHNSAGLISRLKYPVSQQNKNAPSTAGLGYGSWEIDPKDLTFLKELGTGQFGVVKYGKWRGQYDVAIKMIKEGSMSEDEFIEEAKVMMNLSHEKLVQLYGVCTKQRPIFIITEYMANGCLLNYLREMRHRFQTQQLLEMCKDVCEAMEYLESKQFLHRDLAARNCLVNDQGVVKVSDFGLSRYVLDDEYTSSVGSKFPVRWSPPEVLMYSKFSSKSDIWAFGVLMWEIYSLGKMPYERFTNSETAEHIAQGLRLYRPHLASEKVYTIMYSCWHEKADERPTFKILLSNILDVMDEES

Molecule `COc1ccc(C(=O)N2CCC(c3ccc(-c4cc5c(-c6ccc(CNC(=O)c7nc(C(C)(C)C)no7)c(C)c6)ncnc5[nH]4)cc3)CC2)cc1N1CCC(=O)NC1=O` [Example 12, 3-(tert-butyl)-N-(4-(6-(4-(1-(3-(2,4-dioxotetrahydropyrimidin-1(2H)-yl)-4-methoxybenzoyl)piperidin-4-yl)phenyl)-7H-pyrrolo[2,3-d]pyrimidin-4-yl)-2-methylbenzyl)-1,2,4-oxadiazole-5-carboxamide] gave a DC50 at BTK of 2 nM. The IC50 in the assay with HEK-293 cells is above 10000 nM.
On to `Cc1cc(-c2ncnc3[nH]c(-c4ccc(C5CCN(CCC6CCN(c7ccc(N8CCC(=O)NC8=O)c(C)n7)CC6)CC5)cc4)cc23)ccc1CNC(=O)c1nc(C(C)(C)C)no1` [Example 13, 3-(tert-butyl)-N-(4-(6-(4-(1-(2-(1-(5-(2,4-dioxotetrahydropyrimidin-1(2H)-yl)-6-methylpyridin-2-yl)piperidin-4-yl)ethyl)piperidin-4-yl)phenyl)-7H-pyrrolo[2,3-d]pyrimidin-4-yl)-2-methylbenzyl)-1,2,4-oxadiazole-5-carboxamide], for which the half-maximal degradation concentration (DC50) at BTK was 2.3 nM. Also, the 50% inhibitory concentration (IC50) with HEK-293 cells is 1860 nM.
`Cc1cc(-c2ncnc3[nH]c(-c4ccc(N5CCN(CC6CCN(c7ccc(N8CCC(=O)NC8=O)cc7)CC6)CC5)nc4)cc23)ccc1[C@@H](C)NC(=O)c1nc(C(C)(C)C)no1` [Example 14, (R)-3-(tert-butyl)-N-(1-(4-(6-(6-(4-((1-(4-(2,4-dioxotetrahydropyrimidin-1(2H)-yl)phenyl)piperidin-4-yl)methyl)piperazin-1-yl)pyridin-3-yl)-7H-pyrrolo[2,3-d]pyrimidin-4-yl)-2-methylphenyl)ethyl)-1,2,4-oxadiazole-5-carboxamide] came in with a 50% degradation concentration (DC50) at BTK of 0.72 nM. In the assay with HEK-293 cells, the 50% inhibitory concentration (IC50) was above 10000 nM.
For `Cc1cc(-c2ncnc3[nH]c(-c4ccc(C5CCN(CCC6CCN(c7ccc(N8CCC(=O)NC8=O)c(F)c7)CC6)CC5)cc4)cc23)ccc1CNC(=O)c1nc(C(C)(C)C)no1` [Example 15, 3-(tert-butyl)-N-(4-(6-(4-(1-(2-(1-(4-(2,4-dioxotetrahydropyrimidin-1(2H)-yl)-3-fluorophenyl)piperidin-4-yl)ethyl)piperidin-4-yl)phenyl)-7H-pyrrolo[2,3-d]pyrimidin-4-yl)-2-methylbenzyl)-1,2,4-oxadiazole-5-carboxamide] the same measures were 1 nM and 1230 nM.
Turning to `CC(C)(C)c1noc(C(=O)NCc2ccc(-c3ncnc4[nH]c(-c5cnn(C6CCN(CC7CCN(c8ccc(N9CCC(=O)NC9=O)cc8)CC7)CC6)c5)cc34)cc2F)n1` [Example 16, 3-(tert-butyl)-N-(4-(6-(1-(1-((1-(4-(2,4-dioxotetrahydropyrimidin-1(2H)-yl)phenyl)piperidin-4-yl)methyl)piperidin-4-yl)-1H-pyrazol-4-yl)-7H-pyrrolo[2,3-d]pyrimidin-4-yl)-2-fluorobenzyl)-1,2,4-oxadiazole-5-carboxamide], it took 0.55 nM to reach half-maximal degradation on BTK (DC50). Besides, in the assay with HEK-293 cells, the IC50 is above 10000 nM.
In the same order, the values of `Cc1cc(-c2ncnc3[nH]c(-c4ccc(C5CCN(CC6CCN(c7ccc8c(c7)CN(C7CCC(=O)NC7=O)C8=O)CC6)CC5)cc4)cc23)ccc1CNC(=O)c1nc(C(C)(C)C)no1` (centres unmarked) [Example 17, 3-(tert-butyl)-N-(4-(6-(4-(1-((1-(2-(2,6-dioxopiperidin-3-yl)-1-oxoisoindolin-5-yl)piperidin-4-yl)methyl)piperidin-4-yl)phenyl)-7H-pyrrolo[2,3-d]pyrimidin-4-yl)-2-methylbenzyl)-1,2,4-oxadiazole-5-carboxamide] are 3.2 nM and above 10000 nM.
As for `Cc1cc(-c2ncnc3[nH]c(-c4ccc(N5CCN(CC6CCN(c7ccc(N8CCC(=O)NC8=O)cc7)CC6)CC5)cc4)cc23)ccc1CNC(=O)c1nc(C(C)(C)C)no1` [Example 18, 3-(tert-butyl)-N-(4-(6-(4-(4-((1-(4-(2,4-dioxotetrahydropyrimidin-1(2H)-yl)phenyl)piperidin-4-yl)methyl)piperazin-1-yl)phenyl)-7H-pyrrolo[2,3-d]pyrimidin-4-yl)-2-methylbenzyl)-1,2,4-oxadiazole-5-carboxamide], half-maximal degradation on BTK (DC50) was put at 1.7 nM. Further, the half-inhibitory concentration (IC50) in the assay with HEK-293 cells is above 10000 nM.
In the same order, the values of `Cc1cc(-c2ncnc3[nH]c(-c4ccc(N5CCN(CC6CCN(c7ccc(N8CCC(=O)NC8=O)cc7)CC6)CC5)cn4)cc23)ccc1[C@@H](C)NC(=O)c1nc(C(C)(C)C)no1` [Example 19, (R)-3-(tert-butyl)-N-(1-(4-(6-(5-(4-((1-(4-(2,4-dioxotetrahydropyrimidin-1(2H)-yl)phenyl)piperidin-4-yl)methyl)piperazin-1-yl)pyridin-2-yl)-7H-pyrrolo[2,3-d]pyrimidin-4-yl)-2-methylphenyl)ethyl)-1,2,4-oxadiazole-5-carboxamide] are 0.72 nM and above 10000 nM.
With `Cc1cc(-c2ncnc3[nH]c(-c4ccc(N5CCN(CC6CCN(c7ccc(N8CCC(=O)NC8=O)cc7)CC6)CC5)cc4)cc23)ccc1[C@@H](C)NC(=O)c1nc(C(C)(C)C)no1` [Example 20, (R)-3-(tert-butyl)-N-(1-(4-(6-(4-(4-((1-(4-(2,4-dioxotetrahydropyrimidin-1(2H)-yl)phenyl)piperidin-4-yl)methyl)piperazin-1-yl)phenyl)-7H-pyrrolo[2,3-d]pyrimidin-4-yl)-2-methylphenyl)ethyl)-1,2,4-oxadiazole-5-carboxamide], on BTK, the 50% degradation concentration (DC50) amounted to 1.4 nM. Also, in the assay with HEK-293 cells, the IC50 was above 10000 nM.
As to `C[C@@H](NC(=O)c1nc(C(C)(C)C)no1)c1ccc(-c2ncnc3[nH]c(-c4ccc(N5CCN(CC6CCN(c7ccc(N8CCC(=O)NC8=O)cc7)CC6)CC5)cc4)cc23)cc1F` [Example 21, (R)-3-(tert-butyl)-N-(1-(4-(6-(4-(4-((1-(4-(2,4-dioxotetrahydropyrimidin-1(2H)-yl)phenyl)piperidin-4-yl)methyl)piperazin-1-yl)phenyl)-7H-pyrrolo[2,3-d]pyrimidin-4-yl)-2-fluorophenyl)ethyl)-1,2,4-oxadiazole-5-carboxamide], half-maximal degradation on BTK (DC50) was put at 1.7 nM. In the assay with HEK-293 cells, this molecule came in with an IC50 above 10000 nM.
Regarding `Cc1cc(-c2ncnc3[nH]c(-c4ccc(C5CCN(CCC6CCN(c7ccc(N8CCC(=O)NC8=O)c(C)c7)CC6)CC5)cc4)cc23)ccc1CNC(=O)c1nc(C(C)(C)C)no1` [Example 22, 3-(tert-butyl)-N-(4-(6-(4-(1-(2-(1-(4-(2,4-dioxotetrahydropyrimidin-1(2H)-yl)-3-methylphenyl)piperidin-4-yl)ethyl)piperidin-4-yl)phenyl)-7H-pyrrolo[2,3-d]pyrimidin-4-yl)-2-methylbenzyl)-1,2,4-oxadiazole-5-carboxamide], at BTK, the DC50 amounted to 2.3 nM. The molecule also returned an IC50 with HEK-293 cells of 1560 nM.
Consider `CC(C)(C)c1noc(C(=O)NCc2ccc(-c3ncnc4[nH]c(-c5ccc(C6CCN(CC7CCN(c8ccc(N9CCC(=O)NC9=O)cc8)CC7)CC6)cc5)cc34)cc2F)n1` [Example 23], for which the half-maximal degradation concentration (DC50) at BTK turned out to be 0.87 nM. In the assay on HEK-293 cells, this molecule showed an IC50 above 10000 nM.
The molecule `Cc1cc(-c2ncnc3[nH]c(-c4ccc(C5CCN(CCC6CCN(c7ccc(N8CCC(=O)NC8=O)c(Cl)c7)CC6)CC5)cc4)cc23)ccc1CNC(=O)c1nc(C(C)(C)C)no1` [Example 24, 3-(tert-butyl)-N-(4-(6-(4-(1-(2-(1-(3-chloro-4-(2,4-dioxotetrahydropyrimidin-1(2H)-yl)phenyl)piperidin-4-yl)ethyl)piperidin-4-yl)phenyl)-7H-pyrrolo[2,3-d]pyrimidin-4-yl)-2-methylbenzyl)-1,2,4-oxadiazole-5-carboxamide] yielded a 50% degradation concentration (DC50) on BTK of 4.8 nM. Moreover, the half-maximal inhibitory concentration (IC50) with HEK-293 cells was 4650 nM.
